Measurements published in patent US11427553B2, “Dihydrooxadiazinones” (Bayer Aktiengesellschaft, priority 2017, dated 2022).

Assays:
[1] = molecular target: human full length PDE3A (Homo sapiens (Human), UniProt Q14432); assay: Assay 4 PDE3A enzyme inhibition (3H-cAMP SPA); type: biochemical; conditions: Sf9 cell extract
Procedure, shortened: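 Hydrolysis of [8-3H]cAMP by Sf9-expressed full-length PDE3A was measured by scintillation proximity, with enzyme diluted to keep kinetics linear and substrate consumption below 70%. Incubation ran 60 min at room temperature at pH 7.5.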

[2] = molecular target: human full length PDE3B (Homo sapiens (Human), UniProt Q13370); assay: Assay 5 PDE3B enzyme inhibition (3H-cAMP SPA); type: biochemical; conditions: Sf9 cell extract
human full length PDE3B, sequence (Q13370 whole entry): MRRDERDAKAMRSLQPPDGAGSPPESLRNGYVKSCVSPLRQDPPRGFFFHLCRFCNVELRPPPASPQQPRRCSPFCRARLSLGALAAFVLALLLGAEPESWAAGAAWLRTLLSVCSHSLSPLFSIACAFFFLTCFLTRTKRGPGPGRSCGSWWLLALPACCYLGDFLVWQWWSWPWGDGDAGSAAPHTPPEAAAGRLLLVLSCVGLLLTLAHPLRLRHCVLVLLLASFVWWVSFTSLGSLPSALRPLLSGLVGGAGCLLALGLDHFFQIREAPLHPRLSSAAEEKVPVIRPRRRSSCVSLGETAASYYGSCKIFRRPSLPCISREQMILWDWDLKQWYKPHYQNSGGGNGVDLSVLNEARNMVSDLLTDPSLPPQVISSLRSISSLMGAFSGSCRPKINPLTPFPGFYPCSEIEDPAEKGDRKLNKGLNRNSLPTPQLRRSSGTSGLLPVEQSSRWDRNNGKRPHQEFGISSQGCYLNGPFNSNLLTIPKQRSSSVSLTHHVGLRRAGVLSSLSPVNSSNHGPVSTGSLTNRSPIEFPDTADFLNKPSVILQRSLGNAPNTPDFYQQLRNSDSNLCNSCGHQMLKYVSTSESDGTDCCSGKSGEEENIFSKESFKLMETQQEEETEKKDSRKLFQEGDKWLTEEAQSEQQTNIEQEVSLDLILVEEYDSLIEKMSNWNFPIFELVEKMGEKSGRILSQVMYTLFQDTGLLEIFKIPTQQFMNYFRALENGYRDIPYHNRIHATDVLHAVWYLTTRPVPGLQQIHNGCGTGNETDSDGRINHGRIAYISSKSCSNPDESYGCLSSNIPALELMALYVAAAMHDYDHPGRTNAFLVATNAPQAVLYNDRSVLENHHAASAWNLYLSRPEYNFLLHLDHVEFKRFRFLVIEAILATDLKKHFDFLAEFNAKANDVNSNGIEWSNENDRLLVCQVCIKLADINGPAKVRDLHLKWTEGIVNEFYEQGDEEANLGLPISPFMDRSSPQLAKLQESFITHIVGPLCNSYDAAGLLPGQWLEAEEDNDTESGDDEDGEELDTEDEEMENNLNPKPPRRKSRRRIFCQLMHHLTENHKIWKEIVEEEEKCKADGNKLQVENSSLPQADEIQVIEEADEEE
Procedure, shortened: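 Sf9 cell extract expressing human full-length PDE3B, diluted for linear kinetics (<70% substrate use), in 50 mM Tris/HCl pH 7.5, 8.3 mM MgCl2, 1.7 mM EDTA. [8-3H]cAMP substrate, 60 min at room temperature; stopped with yttrium SPA beads, scintillation counting. IC50 from sigmoidal activity vs log concentration curves.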

[3] = test system: HeLa cells; assay: Assay 1 cell proliferation measurement (CTG, 72 h), HeLa; type: cell-based, human; conditions: Homo sapiens, HeLa; Assay 1, 72 h, Cell Titer Glo; read-out: HeLa IC50 [nM] (Cervical cancer)
Procedure, shortened: (§1)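 Seed cells, incubate overnight at 37 °C; measure baseline viability (CTG, 0 h plate); dose compound in a 10-step 2.5-fold series (max generally 100 nM final, DMSO 0.3%) for 72 h; read CTG luminescence; fit IC50 with 4 parameters.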

[4] = test system: SK-MEL-3 cells; assay: Assay 1 cell proliferation measurement (CTG, 72 h), SK-MEL-3; type: cell-based, human; conditions: Homo sapiens, SK-MEL3; Assay 1, 72 h, Cell Titer Glo; read-out: SK-MEL-3 IC50 [nM] (melanoma)
Procedure, shortened: as §1

human full length PDE3A, sequence (Q14432 whole entry): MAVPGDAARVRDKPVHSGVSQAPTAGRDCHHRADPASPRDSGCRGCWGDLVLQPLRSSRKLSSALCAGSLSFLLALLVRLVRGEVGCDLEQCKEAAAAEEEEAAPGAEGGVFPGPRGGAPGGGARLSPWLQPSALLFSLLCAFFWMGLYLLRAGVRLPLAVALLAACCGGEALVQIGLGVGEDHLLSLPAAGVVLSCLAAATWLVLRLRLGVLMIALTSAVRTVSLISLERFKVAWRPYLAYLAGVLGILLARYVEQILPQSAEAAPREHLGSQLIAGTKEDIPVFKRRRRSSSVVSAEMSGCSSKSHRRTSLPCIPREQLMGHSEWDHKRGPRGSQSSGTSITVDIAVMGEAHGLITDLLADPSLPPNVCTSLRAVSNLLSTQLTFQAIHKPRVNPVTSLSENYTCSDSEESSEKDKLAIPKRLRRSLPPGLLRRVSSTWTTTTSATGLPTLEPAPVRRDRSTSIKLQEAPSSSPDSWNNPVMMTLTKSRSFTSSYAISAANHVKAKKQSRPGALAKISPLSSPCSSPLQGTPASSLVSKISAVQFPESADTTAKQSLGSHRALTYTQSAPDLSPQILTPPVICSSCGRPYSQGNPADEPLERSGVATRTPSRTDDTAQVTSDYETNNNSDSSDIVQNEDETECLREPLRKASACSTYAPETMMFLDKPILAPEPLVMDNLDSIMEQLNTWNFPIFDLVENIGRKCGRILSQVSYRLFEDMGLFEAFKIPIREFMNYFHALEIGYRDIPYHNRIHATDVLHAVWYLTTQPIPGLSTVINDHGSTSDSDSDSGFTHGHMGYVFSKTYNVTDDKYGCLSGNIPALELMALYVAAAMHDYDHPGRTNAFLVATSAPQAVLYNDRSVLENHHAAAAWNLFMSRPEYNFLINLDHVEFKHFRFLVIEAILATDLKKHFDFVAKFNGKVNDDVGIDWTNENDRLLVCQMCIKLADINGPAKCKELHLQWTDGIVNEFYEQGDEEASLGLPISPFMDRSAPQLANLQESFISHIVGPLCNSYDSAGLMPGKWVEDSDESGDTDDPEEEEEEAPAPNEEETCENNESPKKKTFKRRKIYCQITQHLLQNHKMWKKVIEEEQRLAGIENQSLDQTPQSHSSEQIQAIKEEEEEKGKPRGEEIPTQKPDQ

Row | IC50 [1] [nM] | IC50 [2] [nM] | IC50 [3] [nM] | IC50 [4] [nM] | SMILES
1 | 50 | 110 | 18 | 40 | Cc1ncccc1-c1ccc(C2=NNC(=O)OC2)cc1F [Example 96, 5-[3-Fluoro-4-(2-methylpyridin-3-yl)phenyl]-3,6-dihydro-2H-1,3,4-oxadiazin-2-one]
2 | 65 | 130 | 5 | 8 | Cc1ccc(-c2ccc(C3=NNC(=O)OC3)cc2F)cn1 [Example 97, 5-[3-Fluoro-4-(6-methylpyridin-3-yl)phenyl]-3,6-dihydro-2H-1,3,4-oxadiazin-2-one]
3 | 100 | 120 | 5 | 8 | O=C1NN=C(c2ccc(-c3cc(F)c(F)cc3F)c(F)c2)CO1 [Example 98, 5-(2,2′,4′,5′-Tetrafluoro[1,1′-biphenyl]-4-yl)-3,6-dihydro-2H-1,3,4-oxadiazin-2-one]
4 | 88 | 100 | 5 | 11 | O=C1NN=C(c2ccc(-c3ccc(F)c(F)c3F)c(F)c2)CO1 [Example 99, 5-(2,2′,3′,4′-Tetrafluoro[1,1′-biphenyl]-4-yl)-3,6-dihydro-2H-1,3,4-oxadiazin-2-one]
5 | 48 | 66 | 5 | 9 | O=C1NN=C(c2ccc(-c3cc(F)ccc3F)c(F)c2)CO1 [Example 100, 5-(2,2′,5′-Trifluoro[1,1′-biphenyl]-4-yl)-3,6-dihydro-2H-1,3,4-oxadiazin-2-one]
6 | 28 | 39 | 2 | 4 | N#Cc1ccc(-c2ccc(C3=NNC(=O)OC3)cc2F)cc1 [Example 101, 2′-Fluoro-4′-(2-oxo-3,6-dihydro-2H-1,3,4-oxadiazin-5-yl)[1,1′-biphenyl]-4-carbonitrile]
7 | 170 | 280 | 23 | 40 | Nc1ccccc1-c1ccc(C2=NNC(=O)OC2)cc1F [Example 102, 5-(2′-Amino-2-fluoro[1,1′-biphenyl]-4-yl)-3,6-dihydro-2H-1,3,4-oxadiazin-2-one]
8 | 66 | 140 | 3 | 6 | Cc1ccc(-c2ccc(C3=NNC(=O)OC3)cc2F)cc1N [Example 103, 5-(3′-Amino-2-fluoro-4′-methyl[1,1′-biphenyl]-4-yl)-3,6-dihydro-2H-1,3,4-oxadiazin-2-one]
9 | 35 | 58 | 37 | 17 | O=C1NN=C(c2ccc(-c3cccc(O)c3)c(F)c2)CO1 [Example 104, 5-(2-Fluoro-3′-hydroxy[1,1′-biphenyl]-4-yl)-3,6-dihydro-2H-1,3,4-oxadiazin-2-one]
10 | 48 | 100 | 8 | 15 | O=C1NN=C(c2ccc(-c3ccc(O)cc3)c(F)c2)CO1 [Example 105, 5-(2-Fluoro-4′-hydroxy[1,1′-biphenyl]-4-yl)-3,6-dihydro-2H-1,3,4-oxadiazin-2-one]
11 | 120 | 240 | 9 | 16 | O=C1NN=C(c2ccc(-c3ccccc3O)c(F)c2)CO1 [Example 106, 5-(2-Fluoro-2′-hydroxy[1,1′-biphenyl]-4-yl)-3,6-dihydro-2H-1,3,4-oxadiazin-2-one]
12 | 150 | 160 | 6 | 12 | O=C1NN=C(c2ccc(-c3ccc(F)c(F)c3)c(F)c2)CO1 [Example 107, 5-(2,3′,4′-Trifluoro[1,1′-biphenyl]-4-yl)-3,6-dihydro-2H-1,3,4-oxadiazin-2-one]
13 | 26 | 22 | 6 | 13 | O=C1NN=C(c2ccc(-c3cccnc3)c(F)c2)CO1 [Example 108, 5-[3-Fluoro-4-(pyridin-3-yl)phenyl]-3,6-dihydro-2H-1,3,4-oxadiazin-2-one]
14 | 46 | 32 | 4 | 9 | O=C1NN=C(c2ccc(-c3cccc(F)c3F)c(F)c2)CO1 [Example 109, 5-(2,2′,3′-Trifluoro[1,1′-biphenyl]-4-yl)-3,6-dihydro-2H-1,3,4-oxadiazin-2-one]
15 | 100 | 140 | 8 | 14 | O=C1NN=C(c2ccc(-c3cc(F)cc(F)c3)c(F)c2)CO1 [Example 110, 5-(2,3′,5′-Trifluoro[1,1′-biphenyl]-4-yl)-3,6-dihydro-2H-1,3,4-oxadiazin-2-one]
16 | 170 | 230 | 6 | 10 | Cc1ccc(-c2ccc(C3=NNC(=O)OC3)cc2F)c(C)c1 [Example 112, 5-(2-Fluoro-2′,4′-dimethyl[1,1′-biphenyl]-4-yl)-3,6-dihydro-2H-1,3,4-oxadiazin-2-one]
17 | 210 | 215 | 2 | 6 | Cc1ccc(-c2ccc(C3=NNC(=O)OC3)cc2F)cc1F [Example 113, 5-(2,3′-Difluoro-4′-methyl[1,1′-biphenyl]-4-yl)-3,6-dihydro-2H-1,3,4-oxadiazin-2-one]
18 | 92 | 100 | 4 | 7 | O=C1NN=C(c2ccc(-c3ccccc3F)c(F)c2)CO1 [Example 114, 5-(2,2′-Difluoro[1,1′-biphenyl]-4-yl)-3,6-dihydro-2H-1,3,4-oxadiazin-2-one]
19 | 92 | 100 | 4 | 7 | O=C1NN=C(c2ccc(-c3c(F)cccc3F)c(F)c2)CO1 [Example 115, 5-(2,2′,6′-Trifluoro[1,1′-biphenyl]-4-yl)-3,6-dihydro-2H-1,3,4-oxadiazin-2-one]
20 | 79 | 76 | 16 | 35 | COc1ccccc1-c1ccc(C2=NNC(=O)OC2)cc1F [Example 116, 5-(2-Fluoro-2′-methoxy[1,1′-biphenyl]-4-yl)-3,6-dihydro-2H-1,3,4-oxadiazin-2-one]
21 | 77 | 95 | 5 | 9 | O=C1NN=C(c2ccc(-c3cccc(F)c3)c(F)c2)CO1 [Example 117, 5-(2,3′-Difluoro[1,1′-biphenyl]-4-yl)-3,6-dihydro-2H-1,3,4-oxadiazin-2-one]
22 | 60 | 64 | 3 | 6 | Cc1ccncc1-c1ccc(C2=NNC(=O)OC2)cc1F [Example 118, 5-[3-Fluoro-4-(4-methylpyridin-3-yl)phenyl]-3,6-dihydro-2H-1,3,4-oxadiazin-2-one]
23 | 6 | 4 | 0.3 | 1 | C[C@@H]1OC(=O)NN=C1c1ccc(N2CCOCC2)c(C(F)(F)F)c1 [Example 120, (6S)-6-Methyl-5-[4-(morpholin-4-yl)-3-(trifluoromethyl)phenyl]-3,6-dihydro-2H-1,3,4-oxadiazin-2-one]
24 | 78 | 31 | > 100 | > 100 | Cn1cc(-c2ccc(C3=NNC(=O)OC3)cc2C(F)(F)F)c(C(F)(F)F)n1 [Example 127, 5-{4-[1-Methyl-3-(trifluoromethyl)-1H-pyrazol-4-yl]-3-(trifluoromethyl)phenyl}-3,6-dihydro-2H-1,3,4-oxadiazin-2-one]
25 | 280 | 270 | > 100 | > 100 | Cc1n[nH]c(C)c1-c1ccc(C2=NNC(=O)OC2)cc1C(F)(F)F [Example 128, 5-[4-(3,5-Dimethyl-1H-pyrazol-4-yl)-3-(trifluoromethyl)phenyl]-3,6-dihydro-2H-1,3,4-oxadiazin-2-one]
26 | 970 | 770 | > 100 | > 100 | Cc1noc(C)c1-c1ccc(C2=NNC(=O)OC2)cc1C(F)(F)F [Example 129, 5-[4-(3,5-Dimethyl-1,2-oxazol-4-yl)-3-(trifluoromethyl)phenyl]-3,6-dihydro-2H-1,3,4-oxadiazin-2-one]
27 | 200 | 160 | > 100 | 25600 | O=C1NN=C(c2ccc(-c3c[nH]nc3C(F)(F)F)c(C(F)(F)F)c2)CO1 [Example 130, 5-{3-(Trifluoromethyl)-4-[3-(trifluoromethyl)-1H-pyrazol-4-yl]phenyl}-3,6-dihydro-2H-1,3,4-oxadiazin-2-one]
28 | 32 | 42 | 2 | 6 | CCn1cc(-c2ccc(C3=NNC(=O)OC3)cc2C(F)(F)F)cn1 [Example 131, 5-[4-(1-Ethyl-1H-pyrazol-4-yl)-3-(trifluoromethyl)phenyl]-3,6-dihydro-2H-1,3,4-oxadiazin-2-one]
29 | 260 | 450 | 16 | 38 | CN(c1ccc(C2=NNC(=O)OC2)cc1C(F)(F)F)C1CCCC1 [Example 132, 5-{4-[Cyclopentyl(methyl)amino]-3-(trifluoromethyl)phenyl}-3,6-dihydro-2H-1,3,4-oxadiazin-2-one]
